# Source: patent US10485772B2, “Compositions for modulating cancer stem cells and uses therefor” (University of Canberra, priority 2014, dated 2019)
# What was measured:
# MDA-MB 231 cells = assay: FACS analysis of CD44high/CD24low CSC-like subpopulation in Basal/metastatic model; type: cell-based, human; settings: bisindolylmaleimide-I 4 μM
# Description: Cells from each well/flask were harvested by means of trypsin treatment followed by two washes with PBS. Washed cells then re-suspended in an antibody cocktail consisting anti-CD44-APC, anti-CD24-PE antibodies (details in Table 5) and Hoechst 33258 dye (final dilution of 1:1000) (Invitrogen, Carlsbad, Calif.) in 1% FCS-PBS solution. Cells re-suspended in antibody cocktail were incubated for 20 minutes at 4° C. Cells were next washed twice with PBS and re-suspended in 1% FCS-PBS solution (volume based on cell number) and kept on ice until analyzed by FACS. Forward scatter (FSC) and side scatter parameters were selected with FITC fluorochrome excited by 488 nm argonion laser, PE fluorochrome excited by 488 nm and Hoechst fluorochrome excited by 350 nm helium-cadmium UV laser.
# Flow Cytometry data was produced using either BD FACS LSR Flow Cytometer (Becton Dickinson Biosciences) or BD FACS Aria™ II Flow Cytometer (Becton Dickinson Biosciences) and analyzed using the data acquisition software CellQuest Pro (Becton Dickinson Biosciences) and FlowJo (Tree Star Inc., Ashland, Oreg.) software at the MCRF facility, JCSMR, ANU, Canberra, Australia. Single colour controls were used to set compensation parameters. Isotype controls were used for all corresponding primary antibodies in each experiment.
# The adherent human mammary adenocarcinoma MCF-7 and MDA-MB-231 cells were cultured in low glucose DMEM (Gibco) and both supplemented with 10% FCS, 2 mM L-glutamine and 0.1% PSN antibiotics. Cells were stimulated with 0.65 ng/ml of phorbol 12-myristate 13-acetate (PMA) (Sigma-Aldrich) or 20 ng/ml of TGF-β (R&D systems) for the times indicated. For Bisindolylmaleimide-I (Calbiochem) or PKC-θ peptide inhibitor (Calbiochem) studies, cells were pre-treated with 1 μM or 30 μM of inhibitor respectively for 1 h prior to stimulation in MCF-7 cells. In case of MDA-MB-231, cells were treated with 4 μM or 30 μM Bisindolylmaleimide-I or PKC-θ peptide inhibitor respectively.
# To separate CSC from non-CSC (NCSC), florescence activated cell sorting (FACS) was performed on single-cell suspensions that were stained with anti-CD44-APC (559942, BD Biosciences) and anti-CD24-PE antibodies (555428, BD Biosciences) along with Hoechst 33258 to monitor cell viability. As used throughout this work, CSC are defined by minority CD44^high/CD24^low, whereas NCSC are defined by rest of the cell populations.
# [1] = system: PKC-θ chromatin association at CSC inducible gene promoters (uPAR, CD44); assay: ChIP assay with anti-PKC-θ antibodies in MCF-IM model; type: cell-based, human
# Description: Between 1-5×10^6 Cells were harvested following various treatments according to the experimental requirement and re-suspended in 10 mL DMEM completer media at room temperature after counting then at Vi-CELL counter. Cells were then cross linked with freshly prepared 1% paraformaldehyde (PFA) (Analytical UNIVAR, Seattle, Wash.) for 10 minutes at room temperature with continuous but slow rotations on rotary wheel. Next, the reaction was quenched by the addition of 2M glycine solution (AnalaR, Merck, Darmstadt, Germany) to a get a final concentration of 125 mM and mixed further for 10 minutes at room temperature on the rotary wheel. Cells were then washed three times with 10 mL ice cold PBS and the cell pellet was either snap frozen on dry ice or used immediately afterwards. SDS Lysis Buffer (Upstate Biotechnology, Billerica, Mass.) was prepared by addition of 1× complete protease inhibitor solution (1 tablet dissolved in 1 mL DEPC water) (Roche Diagnostics, Mannheim, Germany) and cell pellet was then re-suspended in 250 μL of the in the SDS lysis buffer for 10 minutes at room temperature. Cells were sonicated (10 sec pulses for 2 minutes on 1 liter ice cold water mixed with ice, 70% maximum output) to shear the chromatin to obtain an average DNA fragment size of 250-500 bp using a Cole Palmer Ultrasonic processor (Cole Plamer, Vernon Hills, Ill.). […]
structure (smiles),measurement,setting,value
CN(C)CCCn1cc(C2=C(c3c[nH]c4ccccc34)C(=O)NC2=O)c2ccccc21 [bisindolylmaleimide-I],CD44 high CD24 low-CSC-like subpopulation by FACS,MDA-MB 231 cells,inhibits CD44 high CD24 low-CSC-like subpopulation
same,CD44 high CD24 low-CSC-like subpopulation by FACS,MDA-MB 231 cells; listed as Broad spectrum PKC pathway inhibitor,inhibition of EMT and CSC formation
same,PKC-θ chromatin association across the uPAR promoter (ChIP),"[1]; MCF-IM model, bisindolylmaleimide-I 1 μM for 1 hr, then PMA for 60 hours",reduces its chromatin association across the uPAR promoter
same,binding of PKC-θ on the CD44 gene promoter (ChIP),[1]; as worded in Example 13,reduction of binding of PKC-θ on the CD44 gene promoter
